Measurements taken from US20090054435A1, “Phenoxyalkanoic Acid Compound” (priority 2005, published 2009).

Key:
[1] = system: KKAy mice; assay: Blood glucose and blood lipid (triglyceride) lowering action in mice; assay type: in vivo; conditions: 6 days; for hypoglycemic action (%): decrease rate of blood glucose vs non-administration group (100%); for hypolipidemic action (%): decrease rate of blood triglyceride vs non-administration group (100%)
Description: The test compound was mixed with a powder diet (CE-2, CLEA JAPAN, INC.) at a proportion of 0.01% (0.03% for the compound of Example 1) and freely given to KKAy mice (9 to 12-week-old, 5 mice per group) which are obese non-insulin-dependent diabetes (type-2 diabetes) models, for 6 days. During this period, water was freely given to the mice. The blood was drawn from the orbital venous plexus. Glucose and triglyceride in the plasma separated from the blood were quantitated using L Type Wako Glu2 (Wako Pure Chemical Industries, Ltd.) and L Type Wako TG·H (Wako Pure Chemical Industries, Ltd.), respectively, according to an enzyme method.

[2] = molecular target: T1, PPAR γ-RXRα heterodimer (Homo sapiens, UniProt P37231); assay: PPAR γ-RXRα heterodimer ligand activity (luciferase reporter in PPAR γ:RXRα:4ERPP/CHO-K1 cells); assay type: cell-based; conditions: for EC50: compound concentration showing 50% of the maximum induction rate of luciferase activity, 18-24 hr incubation; for Vmax (%): maximum luciferase induction relative to 5-{4-[2-(5-methyl-2-phenyl-1,3-oxazol-4-yl)ethoxy]benzyl}-1,3-thiazolidin-2,4-dione (PPARγ full agonist) as 100%
T1 construct: expressed in transfected cells; host or cells: CHO-K1 (PPAR γ:RXRα:4ERPP/CHO-K1)
T1 sequence (P37231 29-505 limits assumed): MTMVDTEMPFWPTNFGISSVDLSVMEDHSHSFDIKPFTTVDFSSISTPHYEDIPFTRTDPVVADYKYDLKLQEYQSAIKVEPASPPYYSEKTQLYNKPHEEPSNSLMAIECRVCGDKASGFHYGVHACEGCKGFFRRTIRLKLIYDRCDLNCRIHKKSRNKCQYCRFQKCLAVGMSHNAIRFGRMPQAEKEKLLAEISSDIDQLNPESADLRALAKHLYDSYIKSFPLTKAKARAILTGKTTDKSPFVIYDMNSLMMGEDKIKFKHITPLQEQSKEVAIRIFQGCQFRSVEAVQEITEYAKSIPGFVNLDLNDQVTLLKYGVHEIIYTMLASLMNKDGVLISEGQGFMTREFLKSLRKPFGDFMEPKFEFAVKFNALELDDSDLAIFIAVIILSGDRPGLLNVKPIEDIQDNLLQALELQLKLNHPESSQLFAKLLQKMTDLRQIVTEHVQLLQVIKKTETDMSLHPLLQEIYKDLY
T1 sequence (P19793 1-462 partner): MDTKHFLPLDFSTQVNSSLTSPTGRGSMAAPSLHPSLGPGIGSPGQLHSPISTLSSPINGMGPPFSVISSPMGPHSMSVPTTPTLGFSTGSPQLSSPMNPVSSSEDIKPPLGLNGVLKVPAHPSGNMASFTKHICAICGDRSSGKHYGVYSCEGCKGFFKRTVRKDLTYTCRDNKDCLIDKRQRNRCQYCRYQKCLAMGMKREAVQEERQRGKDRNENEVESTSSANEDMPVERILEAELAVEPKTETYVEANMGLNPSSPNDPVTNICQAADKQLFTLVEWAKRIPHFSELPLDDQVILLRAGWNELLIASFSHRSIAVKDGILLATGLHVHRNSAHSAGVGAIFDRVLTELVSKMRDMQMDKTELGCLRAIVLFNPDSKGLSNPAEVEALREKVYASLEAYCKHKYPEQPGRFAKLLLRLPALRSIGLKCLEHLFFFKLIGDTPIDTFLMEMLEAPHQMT
Protocol: The PPAR γ:RXRα:4ERPP/CHO-K1 cells described in WO03/099793 were cultured in a HamF12 medium [manufactured by Life Technologies, Inc., US] containing 10% calf fetal serum [manufactured by Life Technologies, Inc., US], sown in a 96-well white plate [manufactured by Corning Coster Corporation, US] at 2×10^4 cells/well, and incubated overnight in a carbon dioxide gas incubator at 37° C.
Then, the medium was removed from the 96 well white plate, 80 μl of HamF12 medium containing 0.1% fatty acid-free bovine serum albumin (BSA) and a test compound (20 μl) were added, and the cells were incubated for 18-24 hr in a carbon dioxide gas incubator at 37° C. The medium was removed, 40 μl of PicaGene7.5 (manufactured by Wako Pure Chemical Industries, Ltd.) 2-fold diluted with HBSS (HANKS' BALANCED SALT SOLUTION) [manufactured by BIO WHITTAKER, US] was added. After stirring, the luciferase activity was determined using the 1420 ARVO Multilabel Counter [manufactured by PerkinElmer, US].
The induction rate was calculated from the luciferase activity of each test compound based on the luciferase activity of the test compound non-administration group as 1. The test compound concentration and the induction rate were analyzed by PRISM [manufactured by GraphPad Software, Inc., US] to calculate EC50 value (compound concentration showing 50% of the maximum value of induction rate) of the test compound.
In addition, the luciferase activity induction magnification maximum value of each test compound relative to that of the 5-{4-[2-(5-methyl-2-phenyl-1,3-oxazol-4-yl)ethoxy]benzyl}-1,3-thiazolidin-2,4-dione (PPARγ full agonist) administration group as 100% was defined as Vmax and calculated.

[3] = 0.03% in powder diet (compound of Example 1)

Structure (SMILES)	hypoglycemic action (%) [1, 3]	hypolipidemic action (%) [1, 3]	EC50 [2]	Vmax (%) [2]	melting point	hypoglycemic action (%) ([1]; 0.01% in powder diet)	hypolipidemic action (%) ([1]; 0.01% in powder diet)
COc1ccc(C(=O)c2ccc(OCc3nc(-c4ccccc4)oc3C)cc2)c(OCC(=O)O)c1 [Example 1, (5-methoxy-2-{4-[(5-methyl-2-phenyl-1,3-oxazol-4-yl)methoxy]benzoyl}phenoxy)acetic acid]	54%	44%	100 nM	57%	146 to 147 °C	–	–
COc1ccc(C(=O)c2ccc(OCc3nc(-c4ccccc4)oc3C)cc2)c(OC(C)(C)C(=O)O)c1 [Example 14, 2-(5-methoxy-2-{4-[(5-methyl-2-phenyl-1,3-oxazol-4-yl)methoxy]benzoyl}phenoxy)-2-methylpropanoic acid]	–	–	15 nM	61%	175 to 177 °C	38%	29%
COc1ccc(C(=O)c2ccc(OCc3nc(-c4ccccc4)oc3C)nc2)c(OC(C)C(=O)O)c1 (stereo not drawn) [Example 21, 2-[5-methoxy-2-({6-[(5-methyl-2-phenyl-1,3-oxazol-4-yl)methoxy]pyridin-3-yl}carbonyl)phenoxy]propanoic acid]	–	–	8.1 nM	60%	162 to 163 °C	32%	14%
Cc1oc(-c2ccccc2)nc1COc1ccc(C(=O)c2ccccc2OC(C)C(=O)O)cc1 (stereo not drawn) [Example 22, 2-(2-{4-[(5-methyl-2-phenyl-1,3-oxazol-4-yl)methoxy]benzoyl}phenoxy)propanoic acid]	–	–	33 nM	70%	186 to 187 °C	41%	48%
COc1cc(C)c(C(=O)c2ccc(OCc3nc(-c4ccccc4)oc3C)cc2)c(O[C@H](C)C(=O)O)c1 [Example 42, (2R)-2-(5-methoxy-3-methyl-2-{4-[(5-methyl-2-phenyl-1,3-oxazol-4-yl)methoxy]benzoyl}phenoxy)propanoic acid]	–	–	1 nM	73%	122 to 123 °C	–	–
COc1ccc(C(=O)c2ccc(OCc3nc(-c4ccccc4)oc3C)cc2)c(O[C@H](C)C(=O)O)c1 [Example 53, (2R)-2-(5-methoxy-2-{4-[(5-methyl-2-phenyl-1,3-oxazol-4-yl)methoxy]benzoyl}phenoxy)propanoic acid]	–	–	5.1 nM	60%	169 to 170 °C	46%	12%
COc1ccc(C(=O)c2ccc(OCCc3nc(-c4ccccc4)oc3C)nc2)c(O[C@H](C)C(=O)O)c1 [Example 55, (2R)-2-[5-methoxy-2-({6-[2-(5-methyl-2-phenyl-1,3-oxazol-4-yl)ethoxy]pyridin-3-yl}carbonyl)phenoxy]propanoic acid]	–	–	15 nM	44%	–	–	–
